According to paper PMC12721288, “Functional expression and properties of the tick α6 homomeric nicotinic acetylcholine receptor in Xenopus laevis oocytes” (Current Research in Parasitology & Vector-borne Diseases, 2025):
Where two headings read alike, the source gives them in different places.

How the values were obtained:
Type in all cases: cell-based, Ixodes ricinus
[1] = system: T1, Iricα6 homomeric nicotinic acetylcholine receptor; assay: two-electrode voltage clamp in Xenopus oocytes, inhibition of ACh-evoked currents
T1 construct: Iricα6 homomeric receptor expressed in Xenopus laevis oocytes (co-injected with C. elegans RIC-3)

[2] = system: T1, Iricα6 homomeric nicotinic acetylcholine receptor; assay: two-electrode voltage clamp in Xenopus oocytes, agonist-like dose-response
[3] = system: T1, Iricα6 homomeric nicotinic acetylcholine receptor; assay: two-electrode voltage clamp in Xenopus oocytes, agonist dose-response

Which IC50 ([1]; read-out: IC50) does the source give for `CCN1C[C@]2(COC(=O)c3ccccc3N3C(=O)C[C@H](C)C3=O)CC[C@H](OC)[C@@]34[C@@H]5C[C@H]6[C@H](OC)[C@@H]5[C@](O)(C[C@@H]6OC)[C@@](O)([C@@H](OC)[C@H]23)[C@@H]14` [MLA, methyllicaconitine] here?
Its IC50 is 8.56 nM.

Which EC50 [2] does the source give for `CNC1(C)C2CCC(C2)C1(C)C` (stereo not shown) [MECA, mecamylamine] here?
Its EC50 is 12.6 nM.

With `CO[C@H]1CC=C2CCN3CCC4=C(CC(=O)OC4)[C@]23C1` [DHβE, dihydro-β-erythroidine] as the compound, how does the IC50 [1] read?
Its IC50 is 1.35 nM.

Which EC50 [3] does the source give for `CC(=O)OCC[N+](C)(C)C` [ACh, acetylcholine] here?
Its EC50 is 27700 ± 2440 nM.
